According to ChEMBL document CHEMBL1133228, “Synthesis and PTP1B inhibition of novel 4-aryl-1-oxa-9-thiacyclopenta[b]fluorenes” (Bioorg Med Chem Lett, 2000):

Assays:
Mus musculus [1] = assay: Reduction in insulin-induced protein tyrosine phosphorylation in liver of ob/ob mice at 10 mg/kg perorally; assay type: functional; settings: route oral
[2] = target: T1, Tyrosine-protein phosphatase non-receptor type 1 (Homo sapiens, UniProt P18031); assay: Compound was evaluated for the inhibitory activity against recombinant Protein-tyrosine phosphatase 1B using, phosphotyrosyl dodecapeptide [TRDI(P)YETD(P)Y(P)YRK] as substrate
T1 sequence (P18031 whole entry): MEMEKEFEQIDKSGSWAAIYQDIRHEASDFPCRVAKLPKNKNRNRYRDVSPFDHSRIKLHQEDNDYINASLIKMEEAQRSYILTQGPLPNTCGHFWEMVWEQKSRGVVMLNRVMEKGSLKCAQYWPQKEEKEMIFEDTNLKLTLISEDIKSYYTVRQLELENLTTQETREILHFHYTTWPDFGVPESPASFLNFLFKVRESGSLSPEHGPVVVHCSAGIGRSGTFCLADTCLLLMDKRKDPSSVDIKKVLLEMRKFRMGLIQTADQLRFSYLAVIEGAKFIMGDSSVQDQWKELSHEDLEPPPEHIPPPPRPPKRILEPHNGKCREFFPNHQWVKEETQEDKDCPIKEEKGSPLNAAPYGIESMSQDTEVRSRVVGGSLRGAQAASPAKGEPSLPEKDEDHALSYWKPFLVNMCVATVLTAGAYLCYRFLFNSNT

Mus musculus [3] = assay: Reduction in insulin-induced protein tyrosine phosphorylation in liver of ob/ob mice at 25 mg/kg perorally; assay type: functional; settings: route oral

Row | IC50 [2] | SMILES | Insulin lowering effect (Mus musculus [1]) | Insulin lowering effect (Mus musculus [3])
1 |  | Cc1oc2cc3sc4ccccc4c3c(-c3cc(I)c(O[C@H](Cc4ccccc4)C(=O)O)c(I)c3)c2c1C | 43% | 
2 | 179 nM | O=C(O)[C@@H](Cc1ccccc1)Oc1c(I)cc(-c2c3ccccc3cc3sc4ccccc4c23)cc1I |  | 68%
